The source of these data is US7189519B2, “Bead-based detection of ligand-GPCR-G protein complexes” (STC.UNM, priority 1998, dated 2007).

Molecules are shown by their SMILES. Residues, ends and D or L forms follow the SMILES beside them. *: point of attachment. For = O=C*

For the experiment, the system named is FPR-GFP with Gαβγ on DCNi beads (LR^FG ternary complex). Nature of the experiment: Standard LRG assembly assay with FPR-GFP (R^F) on G protein beads, flow cytometry. Type of experiment: biochemical, human. The settings on record: for EC50: standard assembly with 30 nM R^F, three experiments, read-out: EC50 for LRG formation. How it is done: Standard LRG Assembly Assay. […] Each mixture was mixed by pipetting to ensure a uniform starting suspension of the beads in 96 V-well plates (Costar), and then mixed at low speed on a vortex mixer at 7° for two hours. The 10 μl assays were individually brought to 200 μl with 0.1% dodecyl maltoside in buffer A in 12×75 mm tubes for flow cytometric measurement of fluorescence of the beads. LRG assembly was defined as the difference between fluorescence without GTPγS and that with GTPγS. All determinations were done in duplicate.

In general, EC50 refers to the concentration needed to bring the measured effect to its halfway point. Turning to `CSCC[C@H](NC=O)C(=O)N[C@@H](CC(C)C)C(=O)N[C@@H](Cc1ccccc1)C(=O)N[C@@H](Cc1ccccc1)C(=O)O` [fMLFF] (For-MLFF-OH; C-terminus assumed), the EC50 came to 0.027 µM.

Regarding `CSCC[C@H](NC=O)C(=O)N[C@@H](CC(C)C)C(=O)O` [fML] (For-Met-Leu-OH; C-terminus assumed), the EC50 was 5.3 µM. Further, for the setting “near the limit of solubility of fML”, the “calculated maximal assembly, of the LRG assembly of the longer peptides” value is on record as 78+/−3%.
